The pKa sets of Baltruschat and Czodrowski (2020)
Where a SMILES comes first, the peptide text is derived from it.

| SMILES | pKa (acidic group) | pKa (basic group) |
| --- | --- | --- |
| N#CC(CC(=O)O)Cc1ccccc1 (stereo unspecified) | 3.91 | – |
| Cc1ncnc2nc[nH]c12 | 9.21 | 2.6 |
| Cc1cc(=O)oc2cccc(O)c12 | 8.26 | – |
| CCCCCCCCCCCCCCCCCCCCCCN | – | 10.6 |
| CC1(C)CC(=O)C(C)(C)N1 | – | 7.1 |
| CC1C(=O)CC(C)(C)CC1=O | 5.6 | – |
| C[n+]1ccc([O-])nc1[O-] | – | 9.73 |
| O=C(O)c1cccc([N+](=O)[O-])c1O | 2.16 | – |
| O=S1(=O)Nc2cccc3cccc1c23 | 6.2 | – |
| Cc1cc(O)cc(O)c1C(=N)c1ccccc1 | – | 6.75 |
| Nc1nccc(-c2csc(N)n2)n1 | – | 4 |
| CCNC(C)C | – | 11 |
| CN1[C@@H]2C[C@@H]3C[C@H]1[C@@H](O)[C@H]2O3 | – | 8.2 |
| CC(C)(CN)CN | – | 10.2 |
| CCOCCn1c(N2CCCN(CCCCn3cccn3)CC2)nc2ccccc21 | – | 8.5 |
| O=[PH]([O-])C([NH2+]Cc1cccnc1)c1ccccc1O (stereo unspecified) | – | 3.25 |
| O=C1[C@H]2C[C@H](CN3CCCC[C@@H]23)C2=CCCCN12 | – | 7.7 |
| CCCCCC/N=C/c1c(C)cnc(C)c1O | – | 6.22 |
| Nc1ccc(S(=O)(=O)Nc2ccc[nH+]c2)cc1 | – | 1.59 |
| CC(C)NCCN | – | 10.6 |
| O=S(O)CCCCc1ccccc1 | 2.23 | – |
| Cc1cc(O)ccc1Cl | 9.4 | – |
| Cc1c(C(=O)O)[nH]c2ccccc12 | 4.33 | – |
| O=S(=O)(NBr)c1ccccc1 | 4.95 | – |

| SMILES | pKa (acidic group) | pKa (basic group) |
| --- | --- | --- |
| [O-]c1cc(O)nc[nH+]1 | 5.4 | – |
| CC[C@H](C)[C@H](N)C(=O)[O-] | – | 9.77 |
| CC(=O)NBr | 8.1 | – |
| SCCNCc1cccs1 | – | 8.93 |
| C1CNCCSCC[NH2+]C1 | – | 3.23 |
| CC(c1ccccc1)[N+](=O)[O-] (stereo unspecified) | 7.39 | – |
| NCC(=O)N1CCC[C@H]1C(=O)[O-] (H-Gly-Pro-OH) | – | 8.49 |
| N=C(N)Nc1nc(N)nc(NC(N)=[NH2+])n1 | – | 7 |
| O=C(O)[C@H]1C[C@H]2CC[C@@H]1C2 | 5.08 | – |
| [NH3+]CCCCCC(=O)O | 4.37 | – |
| CC(N)CCc1ccc(O)cc1 (stereo unspecified) | – | 9.14 |
| Oc1cccc2[nH]ncc12 | – | 8.65 |
| Cc1cc(I)ccc1C(=O)O | 3.79 | – |
| COCCN | – | 9.67 |
| Cc1cnc2c(C)ccc([N+](=O)[O-])c2c1NCCC[NH+](C)C | – | 6.1 |
| C[C@@H]1[C@@H](N)[C@H]1N | – | 8.98 |
| OCNc1nc(NCO)nc(NCO)n1 | – | 4.05 |
| [S-]CCNCc1ccccc1 | – | 10.3 |
| OC(O)c1cccnc1 | 13.1 | – |
| Nc1cccc2ncccc12 | – | 5.46 |
| N=C(Nc1ccccc1)Nc1nc(N)nc(N)n1 | – | 8.2 |
| CC(S)C(=O)O (stereo unspecified) | 3.35 | – |
| COc1ccccc1C(=O)N[C@@H]1C[C@H]2CC[C@@H](C1)N2Cc1ccccc1 | – | 8.88 |
| CN/C=[NH+]/c1cccc(-c2csc(N=C(N)N)n2)c1 | – | 6.29 |

| SMILES | pKa (acidic group) | pKa (basic group) |
| --- | --- | --- |
| CC(=O)c1ccccc1NN=C1C(=O)CC(C)(C)CC1=O | 10.5 | – |
| CCCSCCN(CC)CC | – | 8.83 |
| C1CCCNCCCCCCNCC1 | – | 9.6 |
| Cc1nc(N)nc(N)n1 | – | 4.59 |
| Clc1cc2cccnc2c2ncccc12 | – | 4.22 |
| COc1ccc2c(c1)NCCN2 | – | 5.26 |
| NC(=O)C(N)Cc1c[nH]c2ccccc12 (stereo unspecified) | – | 7.55 |
| Cc1cc([N+](=O)[O-])ccc1C(=O)O | 2.91 | – |
| CNNC | – | 5.2 |
| CCCO | 16 | – |
| O=S(=O)(O)c1ccc(O)cc1 | 4.51 | – |
| COc1cccc(C(=O)CCN2CCOCC2)c1 | – | 7.1 |
| CCN(CC)CCCC(C)Nc1ccnc2ccccc12 (stereo unspecified) | – | 10.2 |
| Oc1onc2c1CC[NH2+]CC2 | 3.3 | – |
| CCNC(N)=O | – | 1.19 |
| CCCCCNCc1ccc(C)cc1 | – | 10.1 |
| CCN(CC)CC(=O)Nc1ccccc1 | – | 8 |
| CCN(CC)Cc1cc(Br)ccc1[O-] | – | 10.7 |
| Cc1ccc(C(=O)O)cc1[N+](=O)[O-] | 3.62 | – |
| NCc1ccc(O)cc1 | – | 9.14 |
| CC([SeH])C[NH3+] (stereo unspecified) | 5.19 | – |
| C/C(=C\C=C\C(C)C(=O)O)[C@H]1C[NH2+][C@H](C(=O)O)[C@H]1CC(=O)O (stereo partly specified) | 2.1 | – |
| Cc1cc(C)cc(C(=O)O)c1 | 4.3 | – |
| CCCCc1c(-c2ccccc2)n[nH]c1O | 8.2 | – |

| SMILES | pKa (acidic group) | pKa (basic group) |
| --- | --- | --- |
| CSc1cc(C)ncn1 | – | 3.25 |
| CCC/C(N)=C/C(=O)c1ccccc1 | – | -1.12 |
| O=C(O)c1cccc(=O)cc1 | 3.2 | – |
| CC[n+]1ccc([O-])nc1[S-] | – | 8.7 |
| Cc1cnc2c(cc(C)c3cccnc32)c1C | – | 5.93 |
| Oc1c(Br)cc(Br)c2cccnc12 | 7.3 | 2.6 |
| Cc1cc(-c2ccccc2)nnc1NCCN1CCOCC1 | – | 7.05 |
| CSc1cccc(O)c1 | 9.47 | – |
| C1CN(CC[NH+]2CCOCC2)CCO1 | – | 3.63 |
| Nc1nc(N)nc([O-])n1 | – | 9.4 |
| CCC1CSC(C(C)C)=N1 (stereo unspecified) | – | 5.28 |
| Nc1ccc(O)c([N+](=O)[O-])c1 | 7.81 | – |
| O=S(=O)(Nc1ncccn1)c1ccc(O)cc1 | 6.37 | – |
| O=[N+]([O-])c1ccccc1O | 7.15 | – |
| CC(C)N/C=N/c1ccc(-c2cn(C)cn2)cc1 | – | 8.99 |
| c1ccc(-c2nc3cnccc3[nH]2)cc1 | 10.3 | 6 |
| COc1cccc(OC)c1O | 10.1 | – |
| [NH3+]CCCCCC#CC#CCCC(=O)O | 4.17 | – |
| c1cc(N2CCCCC2)ccc1N1CCCCC1 | – | 6.5 |
| C[NH+](C)Cc1cc(Cl)cc(C[NH+](C)C)c1O | 5.2 | – |
| Cc1c[nH]c(C)c1 | – | 2.04 |
| O=C(O)C[C@]1(O)C[C@@H]2C=C[C@H]1C2 | 4.36 | – |
| COc1ccc2c3c1O[C@H]1CCC[C@H]4[C@@H]([C@H]2O)N(C)CC[C@]314 | – | 7.71 |
| CN1C[C@H](C(=O)[O-])C=C2c3cccc4[nH]cc(c34)C[C@@H]21 | – | 8.49 |

| SMILES | pKa (acidic group) | pKa (basic group) |
| --- | --- | --- |
| Cn1c(CO)nc2ccccc21 | 15.8 | 4.36 |
| CC(=O)[n+]1cccc(C)c1 | 5.81 | – |
| N[C@H]1CCCC[C@H]1C(=O)Oc1ccc([N+](=O)[O-])cc1 | – | 8.42 |
| O=C(O)C1CCc2ccccc2O1 (stereo unspecified) | 3.38 | – |
| CC(=O)OO | 8.19 | – |
| c1ccc(-c2cc3cccnc3c3ncccc23)cc1 | – | 4.72 |
| C[C@@H](O)[C@H](CCC=O)O[C@H]1O[C@H](C)[C@@H](N(C)C)[C@H](O)[C@H]1O | – | 7 |
| C=CCN(CC=C)CCOC(=O)C(=C)C | – | 7.02 |
| NC12CCC(C1)C2 | – | 9.3 |
| O=C1NCc2[nH]cnc2N1 | 11.5 | – |
| O=CNO | 8.77 | – |
| FC(F)(F)c1ccc2cccnc2c1 | – | 3.16 |
| Cc1ccccc1C(=O)O | 3.92 | – |
| Cc1ccc2[nH]c(CO)nc2c1 | 11.5 | 5.64 |
| COc1ccc(C(=S)Nc2ccc(Cl)cc2)cc1 | 10.9 | – |
| COc1cccc(S)c1 | 6.39 | – |
| C[NH+](C)Cc1cnc2ccc(-c3ccccc3)nn12 | – | 2.99 |
| Oc1c(Cl)cc(Cl)c(Cl)c1C[NH+]1CCCCC1 | 5.06 | – |
| C[n+]1cccc(O)c1 | 4.96 | – |
| CCOC(=O)COc1ccc(C(=O)c2ccc(O)c(C[NH3+])c2)cc1 | 7.34 | – |
| Cc1cc(O)ccc1C(C)C | 10.3 | – |
| CC(C)[NH2+]CCc1ccc(O)cc1 | 9.59 | – |
| [NH3+]CCCCCc1ccccn1 | – | 5.7 |
| CC[NH+](CCO)c1ccc(N)cc1 | – | 3.04 |

| SMILES | pKa (acidic group) | pKa (basic group) |
| --- | --- | --- |
| CCOC(=O)COc1ccc(C(=O)c2ccc([O-])c(CN)c2)c(Cl)c1Cl | – | 10.6 |
| Nc1ccc(S(=O)(=O)Nc2cccc[n+]2[O-])cc1 | 5.2 | – |
| Cc1ccc2c(c1O)-c1c-2ccc(C)c1O | 8.04 | – |
| CN(CC1CO1)CC1CO1 (stereo unspecified) | – | 6.45 |
| CCCc1c(O)n2c3cc(C)ccc3nc(N(C)C)n2c1=O | 6.55 | – |
| O=C(O)c1ccccc1-c1ccccc1 | 3.46 | – |
| CC(C)=CCC(=O)O | 4.6 | – |
| CCOC(=O)CC(=O)c1ccc(C)cc1 | 10.7 | – |
| OC[C@H](O)[C@H](O)[C@@H](O)[C@H](O)c1nc2ccccc2[nH]1 | – | 5.28 |
| O/N=C/c1ccccn1 | 10.1 | 3.4 |
| CNCCC#N | – | 8.1 |
| c1ccc(C2CN2)cc1 (stereo unspecified) | – | 6.47 |
| CCO[C@H]1C[C@H]1C(=O)O | 4.83 | – |
| Cn1ccc2ccc3cccnc3c21 | – | 4.36 |
| NC(=O)C1CC2CCN1CC2 (stereo unspecified) | 9.04 | – |
| CN(C)C(=S)OCC(=O)O | 2.87 | – |
| Cc1[nH]cnc1CSCCNC(=[NH2+])NCCCc1c[nH]c[nH+]1 | – | 6.41 |
| O=C(O)c1cc([N+](=O)[O-])ccc1C(=O)c1ccccc1 | 2.86 | – |
| [O-]c1ncnc2ccccc12 | – | 9.81 |
| CCSC(O)O | 11.5 | – |
| CCOC(=O)CC(C)=O | 10.7 | – |
| Nc1ccc2nccnc2c1 | – | 2.95 |
| N#Cc1c(-c2nc3cc(Cl)ccc3o2)c(=O)oc2cc(O)ccc12 | 6 | – |
| Cc1cc(C)c(C[NH3+])cc1N | – | 4.57 |

| SMILES | pKa (acidic group) | pKa (basic group) |
| --- | --- | --- |
| O=P(O)(C1CCCCC1)C1CCCCC1 | 3.47 | – |
| O=C([O-])CCC(=O)C=C=Cc1ccccc1 | 13.3 | – |
| [O-]c1nc2ccccc2[nH]1 | – | 11.9 |
| Cc1ccn(-c2cccc[nH+]2)n1 | – | -3.9 |
| O=C([O-])[C@@H]1CCC[C@H](C(=O)[O-])N1 | – | 9.92 |
| CNC(=O)NC | – | 1.02 |
| CCN(CC)CCC[NH+](CC)CC | – | 8.2 |
| CCCCc1c(-c2ccccc2)nn(-c2ccccc2)c1O | 7.2 | – |
| C=C(C)C(=O)OCCNCCCC | – | 9.12 |
| Nc1ccc(C(=O)[O-])c2ncccc12 | 12.6 | 8.46 |
| Cc1c[n+]([C@@H]2C[C@@H](O)[C@H](CO)O2)c(O)nc1NCCc1ccccc1 | 3.83 | – |
| Cc1cc(Cn2[nH+]c(C)cc2C)n[nH]1 | – | 1.2 |
| Nc1ccccc1-c1ccccc1 | – | 3.81 |
| Cc1ccc(S(=O)(=O)NCCC(=[NH2+])N(C)C)cc1 | 9.84 | – |
| O=C1CCON1 | 6.7 | – |
| Cc1cccc(Cl)c1/C(=N/CCC[NH+](C)C)c1ccccc1 | – | 3.26 |
| CCC([NH3+])C(=O)O (stereo unspecified) | 2.29 | – |
| Clc1ccc(C2CN2)cc1 (stereo unspecified) | – | 6.18 |
| CCCNCc1ccccc1 | – | 9.62 |
| CN1C(=O)N/C(=C\c2ccccc2)C1=O | 9.6 | – |
| CCCc1c(C)nn(-c2ccccc2)c1O | 11.4 | – |
| Nc1cncnc1N | 9.33 | 6.03 |
| CN(C)c1ccc(/N=N/c2ccccc2)cc1 | – | 2.85 |
| Nc1ccccc1Br | – | 2.4 |
